Reference: patent US8293774B2, “Optically active (R)-aryloxypropionic acid amides and herbicidal composition comprising same” (Kyung Nong Corporation, priority 2007, dated 2012)

Tests used:
[1] = test system: DIGSA (Digitaria Sanguinalis (L.) SCOP, large crabgrass); test: Weed control test, foliage treatment (Test Example 1, Table 7); assay type: in vivo; settings: Digitaria sanguinalis, foliar, read-out: Plant damage (herbicidal activity), visually evaluated, DIGSA
Outline: (§1)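 Post-emergence foliar spray, 2,000 l/ha aqueous emulsion (compound:acetone:emulsifier 1:5:1 w/w), applied once barnyard grass reached 3-leaf stage; greenhouse 20 to 30° C, sandy loam. Visual injury 1 to 100% vs untreated, 10 and 20 d post-treatment.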

[2] = test system: ECHOG (Echinoch crus-galli Beauv. var. caudata Kitagawa, barnyard grass); test: as above; assay type: in vivo; settings: Echinochloa crus-galli, foliar, 3-leaf stage, read-out: Plant damage (herbicidal activity), visually evaluated, ECHOG
Outline: as §1

[3] = test system: PANDI (Panium dichotomiflorum Michx, fall panicum); test: as above; assay type: in vivo; settings: Panicum dichotomiflorum, foliar, read-out: Plant damage (herbicidal activity), visually evaluated, PANDI
Outline: as §1

[4] = test system: SETVIR (Setaria viridis (L.) Beauv, green foxtail); test: as above; assay type: in vivo; settings: Setaria viridis, foliar, read-out: Plant damage (herbicidal activity), visually evaluated, SETVIR
Outline: as §1

[5] = test system: ARTHIS (Arthraxon hispidus (Thunb.) Makino, creek grass); test: as above; assay type: in vivo; settings: Arthraxon hispidus, foliar, read-out: Plant damage (herbicidal activity), visually evaluated, ARTHIS
Outline: as §1

[6] = test system: SORBI (Andropogon sorghum, common sorgum); test: as above; assay type: in vivo; settings: Sorghum bicolor, foliar, read-out: Plant damage (herbicidal activity), visually evaluated, SORBI
Outline: as §1

[7] = test system: ZEAMX (Zea mays L., corn); test: as above; assay type: in vivo; settings: Zea mays, foliar, read-out: Plant damage (herbicidal activity), visually evaluated, ZEAMX
Outline: as §1

[8] = test system: HORVU (Hordeum vulgare L., barley); test: as above; settings: in vivo
[9] = test system: TRZAW (Tritium aestivum L., wheat); test: as above; settings: in vivo
[10] = test system: ORYSA (Oryza sativa cv. Dongjin, rice); test: as above; settings: in vivo
[11] = test system: GLXMA (Glycine max(L.) MERR, soy bean); test: as above; settings: in vivo
Barnyard grass = test: Weed control test, 4-leaf stage plants (Test Example 1, Table 8); assay type: in vivo, Echinoch crus-galli Beauv. var. caudata Kitagawa
Echinochloa oryzicola = test: Foliage treatment with emulsions, dry rice field conditions (Test Example 2, Table 9); assay type: in vivo; settings: 150 g a.i./ha; emulsion of Formulation Example 3; division stage 1~2; 20 days after foliage treatment
Source text: (§2) Seeds of rice (Nampyung rice) and barnyard grasses (Echinochloa oryzicola and Echinochloa crus-galli var. crus-galli) were placed in sandy loam of pots, covered with soil, and grown in the dry rice field conditions.
(§3) Rice (6˜6.5-leaf stage, plant height 33.2 cm) and barnyard grasses (Echinochloa oryzicola: division stage 1˜2, plant height 38.0 cm, Echinochloa crus-galli var. crus-galli: division stage 1˜2, plant height 44.1 cm) were subjected to a foliage treatment with emulsions prepared according to Formulation Example 3 by using compounds of Examples 1, 5 and 13 (purity: 99% or more), wherein the emulsions were sprayed to the plants at a dosage of the active compound of 150 g/ha.
(§4) The herbicidal effect on the barnyard grasses and harmful effect on the rice of the test compounds at 20 days and 30 days after the foliage treatment were visually evaluated as in Test Example 1 in comparison with the untreated control, and the results are shown in Table 9.

[12] = test system: Echinochloa crus-galli var. crus-galli; test: as above; assay type: in vivo; settings: 150 g a.i./ha; emulsion of Formulation Example 3; division stage 1~2; 20 days after foliage treatment
Source text: as §2, §3, §4

rice (Nampyung rice) = test: Foliage treatment with emulsions, dry rice field conditions, harmful effect on rice (Test Example 2, Table 9); assay type: in vivo; settings: 6~6.5-leaf stage, 150 g a.i./ha, emulsion
Source text: as §2

Rice = test: Weed control test, 4-leaf stage plants (Test Example 1, Table 8); settings: in vivo
Procedure: Seeds of rice, wheat, soy bean, barley, corn, common sorgum, barnyard grass, large crabgrass, creek grass, green foxtail and fall panicum were placed in sandy loam in 600 cm^2 pots and covered with soil. After keeping the pots in a greenhouse at 20 to 30° C. allowing growth of the plants to the 3-leaf stage of the barnyard grass, 2,000 l/ha of an emulsion obtained by diluting with water a mixture of 1 part by weight of a test compound, 5 parts by weight of acetone and 1 part by weight of an emulsifying agent (Tween 80, Junsei) was applied to the surface of the foliage of the plants. The plant damage at 10 days and 20 days after the foliage treatment was visually evaluated from the level of 1 to 100% by comparison with the untreated control: […]

Question: What does the source list for `C[C@@H](Oc1ccc(Oc2nc3ccc(Cl)cc3o2)cc1)C(=O)Nc1nc2cc(Cl)ccc2o1` [Example 1, (R)-2-[4-(6-chloro-2-benzoxazolyloxy)phenoxy]propionic acid-N-(5-chloro-2-benzoxazolyl)amide]?
Answer: pest or weed control at 25 g/ha ([1]; 0.025 kg/ha): 90%; pest or weed control at 100 g/ha ([1]; 0.1 kg/ha): 100%; pest or weed control at 200 g/ha ([1]; 0.2 kg/ha): 100%; pest or weed control at 25 g/ha ([2]; 0.025 kg/ha): 95%; pest or weed control at 100 g/ha ([2]; 0.1 kg/ha): 100%; pest or weed control at 200 g/ha ([2]; 0.2 kg/ha): 100%; pest or weed control at 25 g/ha ([3]; 0.025 kg/ha): 90%; pest or weed control at 100 g/ha ([3]; 0.1 kg/ha): 100%; pest or weed control at 200 g/ha ([3]; 0.2 kg/ha): 100%; pest or weed control at 25 g/ha ([4]; 0.025 kg/ha): 70%; pest or weed control at 100 g/ha ([4]; 0.1 kg/ha): 100%; pest or weed control at 200 g/ha ([4]; 0.2 kg/ha): 100%; pest or weed control at 25 g/ha ([5]; 0.025 kg/ha): 70%; pest or weed control at 100 g/ha ([5]; 0.1 kg/ha): 100%; pest or weed control at 200 g/ha ([5]; 0.2 kg/ha): 100%; pest or weed control at 25 g/ha ([6]; 0.025 kg/ha): 60%; pest or weed control at 100 g/ha ([6]; 0.1 kg/ha): 100%; pest or weed control at 200 g/ha ([6]; 0.2 kg/ha): 100%; plant injury at 25 g/ha ([7]; 0.025 kg/ha): 30%; plant injury at 100 g/ha ([7]; 0.1 kg/ha): 100%; plant injury at 200 g/ha ([7]; 0.2 kg/ha): 100%; Plant damage (herbicidal activity), visually evaluated, HORVU [8]: 0%; Plant damage (herbicidal activity), visually evaluated, TRZAW [9]: 0%; Plant damage (herbicidal activity), visually evaluated, ORYSA [10]: 0%; Plant damage (herbicidal activity), visually evaluated, GLXMA [11]: 0%; Plant damage (herbicidal activity), visually evaluated, Barnyard grass (Barnyard grass; 0.025 kg/ha): 70%; Plant damage (herbicidal activity), visually evaluated, Barnyard grass (Barnyard grass; 0.05 kg/ha): 90%; Plant damage (herbicidal activity), visually evaluated, Barnyard grass (Barnyard grass; 0.1 kg/ha): 100%; Plant damage (herbicidal activity), visually evaluated, Barnyard grass (Barnyard grass; 0.4 kg/ha): 100%; Herbicidal effect (0~100), 20 days, Echinochloa oryzicola (Echinochloa oryzicola): 100%; Herbicidal effect (0~100), 20 days, Echinochloa crus-galli var. crus-galli [12]: 100%; Harmful effect, 20 days (rice (Nampyung rice); 20 days after foliage treatment): 0%; Harmful effect, 30 days (rice (Nampyung rice); 30 days after foliage treatment): 0%; Plant damage (herbicidal activity), visually evaluated, Rice (Rice): 0%
